According to patent US9765299B2, “Chemically defined albumin-free conditions for cardiomyocyte differentiation of human pluripotent stem cells” (Wisconsin Alumni Research Foundation, priority 2014, dated 2017):

What was measured:
hPSCs = assay: Cell death of hPSCs on Gsk3 inhibitor treatment in albumin-free medium; type: cell-based, human
Experimental: hPSCs maintained on a Synthemax-coated surface in E8 or mTeSR1 medium were dissociated into single cells with Accutase® (Life Technologies) at 37° C. for 5 min and then seeded onto a Synthemax-coated cell culture dish at 100,000-200,000 cell/cm^2 in E8 supplemented with 5 μM ROCK inhibitor Y-27632 (Selleckchem)(day −2) for 24 hours. Cells were then cultured in E8, changed daily. […] At day 0 the cell density should be between 250,000 and 400,000 cells/cm^2. At day 3, half the medium was changed to fresh RPMI medium containing 2.5 μM IWP2 (Tocris). At day 5, the entire medium was changed with RPMI medium. Cells were maintained in the cardiomyocyte maintenance medium (CMM: RPMI supplemented with 10 μg/ml insulin (sigma) and 200 μg/ml L-Ascorbic acid 2-phosphate sesquimagnesium salt hydrate (sigma)) starting from day 7, with the medium changed every 2 days.

[1] = system: brachyury expression in ES03 hESCs; assay: Brachyury expression (mesendoderm induction) by western blot and immunostaining; type: cell-based, human
Experimental: Cells were fixed with 4% paraformaldehyde for 15 min at room temperature and then stained with primary and secondary antibodies (Table 3) in PBS plus 0.4% Triton X-100 and 5% non-fat dry milk (Bio-Rad). Nuclei were stained with Gold Anti-fade Reagent with DAPI (Invitrogen). An epifluorescence microscope (Leica DM IRB) with a QImaging® Retiga 4000R camera was used for imaging analysis. Cells were lysed in M-PER Mammalian Protein Extraction Reagent (Pierce) in the presence of Halt Protease and Phosphatase Inhibitor Cocktail (Pierce). Proteins were separated by 10% Tris-Glycine SDS/PAGE (Invitrogen) under denaturing conditions and transferred to a nitrocellulose membrane. After blocking with 5% dried milk in TBST, the membrane was incubated with primary antibody overnight at 4° C. The membrane was then washed, incubated with an anti-mouse/rabbit peroxidase-conjugated secondary antibody (Table 3) at room temperature for 1 hour, and developed by SuperSignal chemiluminescence (Pierce).

## Cc1c[nH]c(-c2cnc(NCCNc3ccc(C#N)cn3)nc2-c2ccc(Cl)cc2Cl)n1 [CH]
hPSCs; 12 μM at day 0, by 24 hr, absence of BSA
  cell death: prolific cell death
hPSCs; same concentration of CH as Burridge et al., 2 days, albumin-free medium
  cell death: substantial cell death
[1]; 6 μM CH, albumin-free RPMI, after 24 hr
  brachyury expression: induced robust brachyury expression
[1]; 30 μM CH, medium containing 1% HRA
  brachyury expression: induced brachyury expression
[1]; CH concentrations up to 6 μM, presence of 1% human recombinant albumin (HRA)
  brachyury expression: unable to induce brachyury expression
